This is an account of results in patent publication US4432984A, “Anti-hypertensive benzodioxan derivatives” (Bouchara; Emile, priority 1981, dated 1984).

Data set [1] in a line: Acute toxicity in mice by the oral route. To be noted: mouse, in vivo, per os, read-out: Approximate lethal dose 50 (LD50). Here is the method:
Toxicity was determined in mice by the oral route.

For another data set, the system named is central nervous system. The experiment in a line: Effects on the central nervous system in mice. To be noted: oral, same dosages which induce an anti-hypertensive activity in rats. In kind it is in vivo. The source says:
Such central effects may be directly related to the hypotensive action.

The structures appear in SMILES notation. Counter-ions that a name gives are not always drawn. A value given as a limit tells only on which side of the number the result lay.

In the case of `O=C(c1ccc(F)cc1)C1CCN(CC2COc3ccccc3O2)CC1` (centres unmarked) [Example 2, 1-[(2,3-Dihydro-4H-1,4-benzodioxin)-2-ylmethyl]-4-(4-fluorobenzoyl)piperidine hydrochloride], in data set [1], the median lethal dose (LD50) lay within 495 to 655 mg/kg. In the data set on central nervous system, the aggressiveness entry is “a decrease of the aggressiveness”, the experimentally-induced sleep result is “a potentiation of the experimentally-induced sleep” and the sedation entry is on record as “a state of sedation”.

For the compound `O=C(Oc1ccc(C(=O)C2CCN(CC3COc4ccccc4O3)CC2)cc1)c1cccnc1` (centres unmarked) [Example 8, 1-[(2,3-Dihydro-4H-1,4-benzodioxin)-2-ylmethyl]-4-(4-hydroxybenzoyl)piperidine nicotinate], in data set [1], the LD50 is over 3200 mg/kg.

In general, LD50 refers to the dose at which mortality reaches 50%.
